Data reported in article PMC6493301, “Targeting host metabolism by inhibition of acetyl-Coenzyme A carboxylase reduces flavivirus infection in mouse models” (Emerging Microbes & Infections, 2019).
Read-outs that look alike come from different tables or passages of the source.

Columns and labels:
WNV [1] = assay: Virucidal assay, WNV preincubated with compound then titrated by plaque assay; conditions: 5 µg/mL, 1 h at 37°C
DENV = DENV multiplication in Vero cells, virus yield by plaque assay; conditions: for EC50: Dengue virus, Vero, 48 h, read-out: EC50 DENV; for SI (CC50/EC50) DENV: calculated at 48 h
human ACC2 = human ACC2 (Homo sapiens, UniProt O00763); assay: Radiometric ACC inhibition assay, human ACC2; assay type: biochemical
Chain of human ACC2 (O00763 whole entry): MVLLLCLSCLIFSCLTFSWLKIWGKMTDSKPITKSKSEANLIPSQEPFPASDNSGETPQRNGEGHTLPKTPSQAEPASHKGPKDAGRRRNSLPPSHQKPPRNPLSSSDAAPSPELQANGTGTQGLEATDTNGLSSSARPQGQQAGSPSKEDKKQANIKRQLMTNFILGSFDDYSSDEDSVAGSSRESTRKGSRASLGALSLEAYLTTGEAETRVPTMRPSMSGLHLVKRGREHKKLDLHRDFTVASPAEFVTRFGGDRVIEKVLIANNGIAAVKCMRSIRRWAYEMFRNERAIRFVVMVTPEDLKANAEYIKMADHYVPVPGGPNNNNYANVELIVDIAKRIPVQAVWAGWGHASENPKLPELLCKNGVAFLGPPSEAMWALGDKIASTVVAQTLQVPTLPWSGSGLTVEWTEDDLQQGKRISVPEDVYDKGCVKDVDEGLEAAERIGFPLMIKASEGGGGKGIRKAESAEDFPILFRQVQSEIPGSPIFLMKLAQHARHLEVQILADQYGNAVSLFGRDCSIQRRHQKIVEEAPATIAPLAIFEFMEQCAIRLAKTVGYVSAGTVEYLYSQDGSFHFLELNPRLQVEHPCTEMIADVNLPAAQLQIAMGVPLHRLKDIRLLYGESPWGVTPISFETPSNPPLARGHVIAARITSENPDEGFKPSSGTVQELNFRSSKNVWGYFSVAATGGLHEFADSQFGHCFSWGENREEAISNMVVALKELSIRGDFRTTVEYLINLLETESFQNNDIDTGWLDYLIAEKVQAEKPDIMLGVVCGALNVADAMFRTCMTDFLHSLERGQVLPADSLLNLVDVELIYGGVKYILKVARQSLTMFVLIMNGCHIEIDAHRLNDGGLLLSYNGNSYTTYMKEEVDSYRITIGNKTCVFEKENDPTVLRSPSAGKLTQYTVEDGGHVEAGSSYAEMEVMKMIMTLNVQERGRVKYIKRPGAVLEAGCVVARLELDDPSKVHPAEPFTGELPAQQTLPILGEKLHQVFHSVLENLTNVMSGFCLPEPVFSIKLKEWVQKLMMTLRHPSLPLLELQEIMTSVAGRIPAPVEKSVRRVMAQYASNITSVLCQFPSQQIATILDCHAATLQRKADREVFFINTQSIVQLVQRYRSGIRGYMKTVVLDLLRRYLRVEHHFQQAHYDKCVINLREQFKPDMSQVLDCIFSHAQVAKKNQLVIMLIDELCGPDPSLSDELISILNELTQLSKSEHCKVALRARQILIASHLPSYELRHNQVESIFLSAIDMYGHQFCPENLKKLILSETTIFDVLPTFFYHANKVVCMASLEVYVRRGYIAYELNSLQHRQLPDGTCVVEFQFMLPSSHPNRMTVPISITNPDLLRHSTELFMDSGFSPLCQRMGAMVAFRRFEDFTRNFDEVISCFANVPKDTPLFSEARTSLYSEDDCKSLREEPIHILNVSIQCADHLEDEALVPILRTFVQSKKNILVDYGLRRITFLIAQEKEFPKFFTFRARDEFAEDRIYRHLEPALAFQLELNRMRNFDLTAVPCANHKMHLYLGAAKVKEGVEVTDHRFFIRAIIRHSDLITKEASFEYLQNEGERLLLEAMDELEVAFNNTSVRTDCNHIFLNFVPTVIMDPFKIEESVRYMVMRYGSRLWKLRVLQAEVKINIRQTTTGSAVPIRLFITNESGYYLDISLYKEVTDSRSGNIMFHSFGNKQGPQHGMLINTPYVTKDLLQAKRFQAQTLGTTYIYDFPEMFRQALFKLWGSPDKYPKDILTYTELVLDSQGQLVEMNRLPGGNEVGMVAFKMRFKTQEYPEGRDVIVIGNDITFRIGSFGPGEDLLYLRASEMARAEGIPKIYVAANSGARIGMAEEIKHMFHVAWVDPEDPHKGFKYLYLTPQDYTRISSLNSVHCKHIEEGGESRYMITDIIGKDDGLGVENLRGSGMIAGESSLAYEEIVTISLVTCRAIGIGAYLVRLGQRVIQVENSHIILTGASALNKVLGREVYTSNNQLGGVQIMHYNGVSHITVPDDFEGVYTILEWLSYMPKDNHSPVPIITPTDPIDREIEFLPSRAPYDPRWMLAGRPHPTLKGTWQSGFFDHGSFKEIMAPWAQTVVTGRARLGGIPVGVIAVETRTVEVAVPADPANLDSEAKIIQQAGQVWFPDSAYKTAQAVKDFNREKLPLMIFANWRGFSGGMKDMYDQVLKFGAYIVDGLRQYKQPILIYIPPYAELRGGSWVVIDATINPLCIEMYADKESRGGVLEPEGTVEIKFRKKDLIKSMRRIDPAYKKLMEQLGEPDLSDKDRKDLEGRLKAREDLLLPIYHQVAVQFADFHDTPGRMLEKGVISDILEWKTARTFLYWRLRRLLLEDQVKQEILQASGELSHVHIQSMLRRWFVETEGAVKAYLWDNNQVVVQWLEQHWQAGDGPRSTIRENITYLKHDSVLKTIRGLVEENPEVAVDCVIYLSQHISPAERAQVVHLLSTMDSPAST
Method: (§1) (-)-Epicgallocathechin gallate, EGCG (catalog no. 0981 S) was from Extrasynthese (Genay, France). […] Apparent permeability was assessed in low-efflux MDCKII cells. In vitro potencies of the inhibitors were determined using a radiometric assay. For tissue culture experiments, drugs were suspended in DMSO. Control cells were treated in parallel with the same amount of DMSO (vehicle). Cell viability was estimated in uninfected cells by ATP measurement using Cell Titer Glo luminescent cell viability assay (catalog no. G7579; Promega, Madison, WI). […] Cells were lysed by adding equal amounts of Cell Titer Glo reagent (100 µL/well) and gentle rocking (2 min) in an orbital shaker. The amount of ATP in each sample was determined by luminescence measurement using white microplates and a TECAN Genius (Zurich, Switzerland) microplate reader.

[2] = Mouse pharmacokinetics after a single oral dose; assay type: in vivo; conditions: fasted male mice, mean ± SD, n = 3; for Cmax: male, read-out: Cmax, maximum plasma-concentration; for Cmax / AUC / Tmax: mouse, in vivo, po; for AUC: 0.5% methyl cellulose suspension, read-out: AUC(Exp), area under the plasma-concentration-time curve; for Tmax: read-out: Tmax, time to reach the maximum plasma-concentration
Method: (§2) Pharmacokinetics was analyzed after a single oral (p.o.) dose of the compounds (in a 0.5% methyl cellulose suspension) administered to fasted male mice. […] Antiviral activity in vivo was determined using eight-week-old Swiss albino CD-1 female mice (Envigo, Huntingdon, UK). […] Control mice were treated in parallel with drug vehicle (carboxymethylcellulose). For experiments evaluating the effect of genetic deletion of ACC2 gene on WNV infection, a breeding colony of C57BL/6 ACC2^-/- mice was established from two heterozygous Acab^tm1Dejs females. Age- and sex-matched eight-week-old ACC2^-/- and control wild type (WT) mice were challenged with WNV (1 × 10^4 PFU/animal, i.p.). Animals were monitored daily and received water and food ad libitum.

WNV [3] = assay: Time of addition assay, WNV-infected Vero cells; assay type: cell-based, West Nile virus; conditions: 5 µg/mL, MOI 1 PFU/cell, 24 h
WNV [4] = assay: WNV multiplication in Vero cells, virus yield by plaque assay; conditions: for EC50: West Nile virus, Vero, 24 h, read-out: EC50 WNV; for SI (CC50/EC50) WNV: calculated at 24 h
rat ACC2 = rat ACC2 (Rattus norvegicus, UniProt Q1HEC0); assay: Radiometric ACC inhibition assay, rat ACC2; assay type: biochemical
Chain of rat ACC2 (Q1HEC0 17-2455): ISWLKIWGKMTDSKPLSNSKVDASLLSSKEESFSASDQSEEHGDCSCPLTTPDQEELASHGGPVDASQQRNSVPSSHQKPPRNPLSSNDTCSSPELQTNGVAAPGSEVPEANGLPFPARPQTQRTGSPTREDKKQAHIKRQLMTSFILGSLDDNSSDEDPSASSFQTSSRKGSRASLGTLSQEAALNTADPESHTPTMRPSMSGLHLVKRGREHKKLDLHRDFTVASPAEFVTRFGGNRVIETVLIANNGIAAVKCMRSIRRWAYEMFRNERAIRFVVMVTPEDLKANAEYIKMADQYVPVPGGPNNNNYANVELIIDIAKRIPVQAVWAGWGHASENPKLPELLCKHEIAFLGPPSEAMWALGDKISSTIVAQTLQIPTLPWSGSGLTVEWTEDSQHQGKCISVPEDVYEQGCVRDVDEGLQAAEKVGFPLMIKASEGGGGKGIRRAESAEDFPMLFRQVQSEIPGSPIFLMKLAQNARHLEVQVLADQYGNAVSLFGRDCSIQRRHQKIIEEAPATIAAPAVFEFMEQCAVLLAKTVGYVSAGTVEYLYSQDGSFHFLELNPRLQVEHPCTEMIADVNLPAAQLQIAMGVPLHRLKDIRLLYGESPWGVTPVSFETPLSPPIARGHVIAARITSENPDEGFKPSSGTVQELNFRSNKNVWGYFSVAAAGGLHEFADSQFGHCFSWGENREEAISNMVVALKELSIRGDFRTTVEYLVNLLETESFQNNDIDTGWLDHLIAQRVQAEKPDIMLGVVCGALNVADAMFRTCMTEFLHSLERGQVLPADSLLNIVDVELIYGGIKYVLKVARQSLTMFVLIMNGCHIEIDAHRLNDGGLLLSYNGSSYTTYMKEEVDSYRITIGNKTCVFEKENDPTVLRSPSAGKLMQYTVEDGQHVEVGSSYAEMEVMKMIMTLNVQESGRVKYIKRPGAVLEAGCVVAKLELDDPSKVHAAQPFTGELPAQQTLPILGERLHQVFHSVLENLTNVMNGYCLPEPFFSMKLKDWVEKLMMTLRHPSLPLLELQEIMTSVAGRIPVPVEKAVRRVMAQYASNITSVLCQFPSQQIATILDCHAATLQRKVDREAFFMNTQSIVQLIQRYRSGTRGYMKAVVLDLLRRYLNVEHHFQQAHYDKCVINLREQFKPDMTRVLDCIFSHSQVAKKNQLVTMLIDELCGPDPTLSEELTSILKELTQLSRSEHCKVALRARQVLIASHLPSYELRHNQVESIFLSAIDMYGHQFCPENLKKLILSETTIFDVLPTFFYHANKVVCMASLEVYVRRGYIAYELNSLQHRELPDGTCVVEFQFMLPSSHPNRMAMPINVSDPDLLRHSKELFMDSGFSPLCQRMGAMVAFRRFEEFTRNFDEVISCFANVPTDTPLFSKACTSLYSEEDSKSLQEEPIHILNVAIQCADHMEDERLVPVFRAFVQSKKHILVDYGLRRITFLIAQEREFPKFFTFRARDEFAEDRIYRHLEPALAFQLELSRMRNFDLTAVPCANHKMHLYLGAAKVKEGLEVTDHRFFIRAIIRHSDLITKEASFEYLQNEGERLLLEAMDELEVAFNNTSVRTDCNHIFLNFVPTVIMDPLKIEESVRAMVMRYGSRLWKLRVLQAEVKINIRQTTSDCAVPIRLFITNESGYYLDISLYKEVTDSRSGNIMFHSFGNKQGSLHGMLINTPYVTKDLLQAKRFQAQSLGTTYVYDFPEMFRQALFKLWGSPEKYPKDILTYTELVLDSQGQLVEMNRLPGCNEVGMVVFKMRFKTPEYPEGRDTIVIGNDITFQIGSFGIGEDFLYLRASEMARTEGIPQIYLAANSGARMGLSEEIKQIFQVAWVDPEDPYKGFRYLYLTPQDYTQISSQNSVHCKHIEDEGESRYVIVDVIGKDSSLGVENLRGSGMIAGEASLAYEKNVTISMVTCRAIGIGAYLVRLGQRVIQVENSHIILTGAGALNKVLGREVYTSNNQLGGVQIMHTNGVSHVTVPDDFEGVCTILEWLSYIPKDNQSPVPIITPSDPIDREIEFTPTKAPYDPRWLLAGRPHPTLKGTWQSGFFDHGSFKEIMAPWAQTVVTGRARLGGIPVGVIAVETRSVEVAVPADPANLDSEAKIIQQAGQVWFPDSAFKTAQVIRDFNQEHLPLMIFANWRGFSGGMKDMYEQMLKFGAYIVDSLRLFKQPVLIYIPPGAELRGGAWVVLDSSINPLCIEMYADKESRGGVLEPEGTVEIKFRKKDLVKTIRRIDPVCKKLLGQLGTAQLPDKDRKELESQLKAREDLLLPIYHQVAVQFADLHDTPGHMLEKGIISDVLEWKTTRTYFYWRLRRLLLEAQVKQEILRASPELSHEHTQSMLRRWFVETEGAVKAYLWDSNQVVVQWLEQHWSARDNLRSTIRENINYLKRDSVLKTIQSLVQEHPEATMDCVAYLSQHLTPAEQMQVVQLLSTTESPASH
Method: as §1

rat ACC1 = rat ACC1 (Rattus norvegicus, UniProt P11497); assay: Radiometric ACC inhibition assay, rat ACC1; assay type: biochemical
Method: as §1

ZIKV = ZIKV multiplication in Vero cells, virus yield by plaque assay; conditions: for EC50: Zika virus, Vero, 24 h, read-out: EC50 ZIKV; for SI (CC50/EC50) ZIKV: calculated at 24 h
[5] = Cell viability by ATP measurement (Cell Titer Glo) in uninfected Vero cells; conditions: African green monkey
Method: as §1

human ACC1 = human ACC1 (Homo sapiens, UniProt Q13085); assay: Radiometric ACC inhibition assay, human ACC1; assay type: biochemical
Method: as §1

[6] = Apparent permeability in low-efflux MDCKII cells; conditions: dog, MDCK
Method: as §1

WNV [7] = assay: Antiviral activity against WNV in mice, viral burden by quantitative RT-PCR; assay type: in vivo; conditions: CD-1 female mice, 20 mg/kg p.o. twice a day
Method: as §2
RNA was automatically extracted using a QIAcube equipment (QIAGEN GmbH, Hilden, Germany) and QIAamp viral RNA Mini Kit (QIAGEN, catalog no. 52906) for sera or RNeasy Mini Kit (QIAGEN, catalog no. 74106) for tissue homogenates. The content of viral RNA in each sample was analyzed by real-time fluorogenic reverse transcriptase PCR by comparison with previously titrated samples and determined as PFU equivalents/mL [22].

[8] = WNV i.p., 7 days post-infection
[9] = single p.o. dose 100 mg/kg, 100 mg/kg
[10] = 100 mg/kg, single p.o. dose 100 mg/kg

| SMILES | Virucidal effect, remaining WNV infectivity (WNV [1]) | EC50 (DENV) [µM] | WNV yield, drug added only 1 h before virus inoculation (pre-infection) (WNV [3]) | EC50 (WNV [4]) [µM] | IC50 (rat ACC2) [µM] | IC50 (rat ACC1) [µM] | EC50 (ZIKV) [µM] | CC50 at 24 h [5] [µM] | CC50 at 48 h [5] [µM] | Papp [6] [×10⁻⁶ cm/s] | SI (CC50/EC50) DENV (DENV) | IC50 (human ACC2) [µM] | Cmax, maximum plasma-concentration [2, 9] [ng/mL] | Cmax [2, 10] [ng/mL] | AUC ([2]; single p.o. dose 100 mg/kg) [ng·h/mL] | Tmax ([2]; single p.o. dose 100 mg/kg) [min] | SI (CC50/EC50) WNV (WNV [4]) | SI (CC50/EC50) ZIKV (ZIKV) | IC50 (human ACC1) [µM] | further results |
| --- | --- | --- | --- | --- | --- | --- | --- | --- | --- | --- | --- | --- | --- | --- | --- | --- | --- | --- | --- | --- |
| O=C(O[C@@H]1Cc2c(O)cc(O)cc2O[C@@H]1c1cc(O)c(O)c(O)c1)c1cc(O)c(O)c(O)c1 [EGCG, (-)-Epicgallocathechin gallate, reference compound] | virucidal effect |  |  |  |  |  |  |  |  |  |  |  |  |  |  |  |  |  |  |  |
| Cc1nc2ccc(C(=O)N3CCC4(CC3)CC(=O)c3c(cnn3C(C)C)C4)cc2[nH]1 [PF-05175157] | Lack of virucidal effect | 1 ± 0.3 | did not affect WNV infection | 2.7 ± 1.3 | 0.05 ± 0.003 | 0.024 ± 0.001 | < 1.2 | 590 ± 37 | 236 ± 11 | 7 |  |  |  |  |  |  |  |  |  | IC50 (human ACC2; radiometric assay, geometric mean ± SEM, n = 3, read-out: IC50 human ACC2): 0.033 ± 0.004 µM; Cmax ([2]; 15 mg/kg, single p.o. dose 15 mg/kg): 903 ± 495 ng/mL; AUC ([2]; single p.o. dose 15 mg/kg): 2170 ± 384 ng·h/mL; Tmax ([2]; single p.o. dose 15 mg/kg): 100 ± 121 min; WNV yield, drug maintained after virus inoculation (post-infection) (WNV [3]): reduced viral production; IC50 (human ACC1; radiometric assay, geometric mean ± SEM, n = 3, read-out: IC50 human ACC1): 0.027 ± 0.003 µM; Viral load in plasma (serum) vs vehicle (WNV [7]; WNV 1 × 10^4 PFU i.p., 3 and 4 days after infection): significant reduction of viral load in plasma; Viral RNA in the kidney vs vehicle (WNV [7]; [8]): significant reduction in the amount of viral RNA in the kidney; Viral RNA in the lung vs vehicle (WNV [7]; [8]): tendency for a reduction in the amount of viral RNA in the lung |
| CC(C)n1ncc2c1C(=O)CC1(CCN(C(=O)c3cc4ncccc4[nH]3)CC1)C2 [PF-05206574] | Lack of virucidal effect | < 1.3 | reduced the infection | 1.9 ± 0.9 | 0.018 ± 0.004 | 0.014 ± 0.003 | < 1.3 | > 1280 | 415 ± 67 | 19 | >319 | 0.022 ± 0.009 | 760 ± 240 | 760 to 1070 | 3700 ± 1440 | 23 ± 12 | >672 | >982 | 0.019 ± 0.004 |  |
| COc1ccc2ncc(C(=O)N3CCC4(CC3)CC(=O)c3c(cnn3C(C)C)C4)cc2c1 [PF-06256254] | Lack of virucidal effect | 1.5 ± 0.4 | reduced the infection | < 1.2 | 0.015 | 0.011 | < 1.2 | 718 ± 314 | 202 ± 22 | 24 | 135 | 0.01 ± 0.002 | 1070 ± 452 | 760 to 1070 | 2900 ± 1070 | 33 ± 25.8 | >598 | >598 | 0.01 ± 0.002 |  |
